These are literature values, as cited in US20210330900A1, “TARGETED ADMINISTRATION TO THE OROPHARYNX OF VISCOUS OR DRY POWDER FLUTICASONE PROPIONATE AND RELATED CORTICOSTEROIDS FOR THE TREATMENT OF EOSINOPHILIC ESOPHAGITIS (EoE)” (Topical Sinus Therapeutics, Inc., priority 2020, published 2021).

Turning to `C[C@@H]1C[C@H]2[C@@H]3C[C@H](F)C4=CC(=O)C=C[C@]4(C)[C@@]3(F)[C@@H](O)C[C@]2(C)[C@@]1(O)C(=O)SCF` [Fluticasone], the gastrointestinal absorption result (compared with other corticosteroids) is “exceptionally low”. For the same molecule, the “drug inactivated by 1st pass hepatic metabolism” value (into a single inactive metabolite, after gastrointestinal absorption) is 99%.
